Activity calls are given as the source filed them. The calls are words filed in the database; no cut-off is given here.

Here are results for 58 compounds from ChEMBL document CHEMBL1128555, “Derivatives of 5-[[1-(4'-carboxybenzyl)imidazolyl]methylidene]hydantoins as orally active angiotensin II receptor antagonists” (J Med Chem, 1995).

Experiment [1] has as its target T1, Angiotensin II receptor (AT-1) type-1 (Rattus norvegicus, UniProt P29089+P25095).
T1 sequence (P29089 whole entry): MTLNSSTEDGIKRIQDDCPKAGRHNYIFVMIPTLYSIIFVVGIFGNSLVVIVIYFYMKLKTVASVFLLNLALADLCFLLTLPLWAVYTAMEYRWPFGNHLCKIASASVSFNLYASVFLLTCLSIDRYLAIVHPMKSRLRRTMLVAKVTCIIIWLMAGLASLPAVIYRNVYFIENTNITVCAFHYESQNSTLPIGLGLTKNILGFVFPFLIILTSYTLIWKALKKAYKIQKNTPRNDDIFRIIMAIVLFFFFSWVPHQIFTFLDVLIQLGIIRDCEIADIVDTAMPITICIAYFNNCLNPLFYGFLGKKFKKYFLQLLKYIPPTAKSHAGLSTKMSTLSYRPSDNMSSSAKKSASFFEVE
T1 sequence (P25095 whole entry): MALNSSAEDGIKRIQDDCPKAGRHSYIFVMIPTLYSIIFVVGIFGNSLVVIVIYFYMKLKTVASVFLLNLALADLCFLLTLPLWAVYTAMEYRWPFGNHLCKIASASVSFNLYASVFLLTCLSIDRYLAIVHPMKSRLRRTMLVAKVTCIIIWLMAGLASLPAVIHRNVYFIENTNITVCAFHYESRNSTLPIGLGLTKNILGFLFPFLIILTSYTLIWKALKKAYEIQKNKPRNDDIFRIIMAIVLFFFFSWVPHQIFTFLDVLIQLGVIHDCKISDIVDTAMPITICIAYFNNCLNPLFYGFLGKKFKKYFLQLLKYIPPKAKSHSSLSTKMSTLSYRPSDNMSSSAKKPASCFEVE
Kind of experiment: Binding affinity expressed as IC50 to the Angiotensin II receptor, type 1, from rat liver membrane.

Experiment [2] addresses Angiotensin II receptor type-1 (Oryctolagus cuniculus) (UniProt P34976). In words: Inhibition of angiotensin II induced contraction in rabbit aortic ring, activity is expressed as IC50.
The target of experiment [3] is Angiotensin II receptor (AT-1) type-1 (Rattus norvegicus) (UniProt P29089+P25095). Kind of experiment: Antihypertensive activity in renal hypertensive rats (RHR) at 30 mg/Kg dose after oral administration. Format: functional, organism-based.

Chain of Angiotensin II receptor type-1 (Oryctolagus cuniculus) (P34976 whole entry, looked up): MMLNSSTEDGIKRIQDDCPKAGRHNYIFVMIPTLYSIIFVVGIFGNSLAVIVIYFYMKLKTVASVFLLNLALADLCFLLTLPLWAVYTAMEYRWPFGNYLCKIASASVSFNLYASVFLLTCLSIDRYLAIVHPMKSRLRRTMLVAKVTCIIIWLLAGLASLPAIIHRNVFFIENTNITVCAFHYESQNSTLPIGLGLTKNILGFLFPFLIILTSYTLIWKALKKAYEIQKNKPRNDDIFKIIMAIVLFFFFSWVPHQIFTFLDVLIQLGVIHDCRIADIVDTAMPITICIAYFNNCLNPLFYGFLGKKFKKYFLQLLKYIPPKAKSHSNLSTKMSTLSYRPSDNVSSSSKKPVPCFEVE

As for `CCCCc1ncc(/C=C2/C(=O)N(CO)C(=O)N2Cc2csc(C)n2)n1Cc1ccc(C(=O)OC)cc1`, the IC50 in experiment [1] was 35.7 nM.
Still for that read-out and setting: for `CCCCc1ncc(/C=C2/C(=O)N(CCCC)C(=O)N2Cc2csc(Br)c2)n1Cc1ccc(C(=O)OC)cc1` the value was 25.4 nM.
On the same count and under the same terms, for `CCCCc1ncc(/C=C2/C(=O)N(CCCC)C(=O)N2Cc2ccc(OC)cc2)n1Cc1ccc(C(=O)OC)cc1` the value was 9.8 nM; for `CCCCc1ncc(/C=C2/C(=O)N(CCCC)C(=O)N2CCc2ccsc2)n1Cc1ccc(C(=O)OC)cc1`, 14.6 nM; for `CCCCc1ncc(/C=C2\C(=O)NC(=O)N2CCCC)n1Cc1ccc(-c2ccccc2-c2nn[nH]n2)cc1`, 2.7 nM.
Regarding `CCCCc1ncc(/C=C2/C(=O)N(CCCC)C(=O)N2Cc2ccno2)n1Cc1ccc(C(=O)OC)cc1`, the IC50 in experiment [2] is given as more than 100 nM; in experiment [1], 10.1 nM. The Maximum blood pressure change in experiment [3] is -23%.
`CCCCc1ncc(/C=C2/C(=O)N(CCCC)C(=O)N2CC2CCCCC2)n1Cc1ccc(C(=O)OC)cc1`: in experiment [1], the IC50 was 3.3 nM.
As for `CCCCc1ncc(/C=C2/C(=O)N(CCCC)C(=O)N2Cc2csc(N)n2)n1Cc1ccc(C(=O)O)cc1`, the concentration for half-maximal inhibition (IC50) turned out to be 2.9 nM in experiment [2] and 0.6 nM in experiment [1]. Besides, the Max entry in experiment [3] was “inactive”.
Consider `CCCCc1ncc(/C=C2/C(=O)N(CCCC)C(=O)N2Cc2ccc(C)cc2)n1Cc1ccc(C(=O)OC)cc1`, for which the IC50 in experiment [1] is 34.6 nM. This counts as double-digit nanomolar.
On the same count and under the same terms, next, `CCCCc1ncc(/C=C2/C(=O)N(CCCC)C(=O)N2Cc2ccc(O)c(O)c2)n1Cc1ccc(C(=O)OC)cc1`: 4.9 nM.
Turning to `CCCCc1ncc(/C=C2/C(=O)N(CCCC)C(=O)N2Cc2csc(C)n2)n1Cc1ccc(C2(C(=O)O)CCCC2)cc1`, in experiment [1], the IC50 was determined as 1.9 nM. In experiment [3], the Maximum blood pressure change was -16%.
In experiment [1], `CCCCCN1C(=O)N(CCCC)C(=O)/C1=C/c1cnc(CCCC)n1Cc1ccc(C(=O)OC)cc1` displayed a half-inhibitory concentration (IC50) of 6.1 nM. This lies in the single-digit nanomolar range.
The same measure, in the same setting: for `CCCCc1ncc(/C=C2\C(=O)N(CCCC)C(=O)N2Cc2csc(C)n2)n1Cc1ccc(C(=O)O)cc1` the value was 1.7 nM.
The same measure, in the same setting: for `CCCCc1ncc(/C=C2/C(=O)N(CCCC)C(=O)N2Cc2cccc[n+]2[O-])n1Cc1ccc(C(=O)OC)cc1` the value was 260 nM.
Consider `CCCCc1ncc(/C=C2/C(=O)N(CCCC)C(=O)N2C=C(C)C)n1Cc1ccc(C(=O)OC)cc1`, for which the IC50 in experiment [1] amounted to 11.1 nM.
For `CCCCc1ncc(/C=C2/C(=O)N(CCCC)C(=O)N2Cc2ccsc2)n1Cc1ccc(C(=O)OC)cc1`, in experiment [1], the IC50 is recorded as 4.8 nM. The Maximum blood pressure change in experiment [3] was -36%.
As for `CCCCc1ncc(/C=C2/C(=O)N(CCCC)C(=O)N2Cc2c[nH]c(C)n2)n1Cc1ccc(C(=O)OC)cc1`, in experiment [1], the half-maximal inhibitory concentration (IC50) came out at 245 nM.
Still for that read-out and setting: next, `CCCCc1ncc(/C=C2/C(=O)N(CCCO)C(=O)N2Cc2csc(C)n2)n1Cc1ccc(C(=O)OC)cc1`: 47.9 nM; `CCCCc1ncc(/C=C2/C(=O)N(CC)C(=O)N2Cc2csc(C)n2)n1Cc1ccc(C(=O)OC)cc1`: 11.1 nM; `CCCCc1ncc(/C=C2/C(=O)N(CCCC)C(=O)N2Cc2ccc(C(F)(F)F)cc2)n1Cc1ccc(C(=O)OC)cc1`: 159 nM.
Same read-out and setting: for `CCCCc1ncc(/C=C2/C(=O)N(CCCC)C(=O)N2Cc2ccccc2)n1Cc1ccc(C(=O)OC)cc1` the value was 12.4 nM.
Still for that read-out and setting: next, `CCCCc1ncc(/C=C2\C(=O)NC(=O)N2CCCC)n1Cc1ccc(-c2ccccc2C(=O)OC)cc1`: 9.9 nM; `CCCCc1ncc(/C=C2\C(=O)N(CCCC)C(=O)N2CCCC)n1Cc1ccc(C(=O)O)cc1`: 0.5 nM.
Regarding `CCCCc1ncc(/C=C2/C(=O)N(CCSC)C(=O)N2Cc2csc(C)n2)n1Cc1ccc(C(=O)OC)cc1`, the half-maximal inhibitory concentration (IC50) in experiment [1] was 9.6 nM.
Still for that read-out and setting: for `CCCCc1ncc(/C=C2/C(=O)N(CCCC(F)(F)F)C(=O)N2Cc2csc(C)n2)n1Cc1ccc(C(=O)OC)cc1` the value was 70 nM; for `CCCCCCN1C(=O)N(CCCC)C(=O)/C1=C/c1cnc(CCCC)n1Cc1ccc(C(=O)OC)cc1`, 40.2 nM; for `CCCCc1ncc(/C=C2/C(=O)N(CCCC)C(=O)N2Cc2c(C)noc2C)n1Cc1ccc(C(=O)OC)cc1`, 198 nM.
Consider `CCCCc1ncc(/C=C2\C(=O)NC(=O)N2Cc2ccccc2)n1Cc1ccc(C(=O)O)cc1`, for which the IC50 in experiment [2] was more than 100 nM; in experiment [1], 3.4 nM.
`CCCCc1ncc(/C=C2/C(=O)N(CCCC)C(=O)N2Cc2csc(C)n2)n1Cc1ccc(C2(C(=O)OC)CCCC2)cc1` had an IC50 in experiment [1] of 8 nM.
As to `CCCCc1ncc(/C=C2/C(=O)NC(=O)N2Cc2ccccc2)n1Cc1ccc(C(=O)O)cc1`, the results for the IC50 in experiment [2] and in experiment [1] were 35 nM and 4 nM, respectively.
Taken in the same sequence, the figures for `CCCCc1ncc(/C=C2/C(=O)NC(=O)N2CCC(C)C)n1Cc1ccc(C(=O)O)cc1` were 32 nM and 6.6 nM.
As to `CCCCc1ncc(/C=C2/C(=O)N(CCCC)C(=O)N2Cc2c[nH]cn2)n1Cc1ccc(C(=O)OC)cc1`, the IC50 in experiment [1] is listed as 54.5 nM.
Turning to `CCCCc1ncc(/C=C2/C(=O)N(CCCC)C(=O)N2Cc2ccc(Br)s2)n1Cc1ccc(C(=O)OC)cc1`, the 50% inhibitory concentration (IC50) in experiment [1] was 17.8 nM.
On the same count and under the same terms, next, `CCCCc1ncc(/C=C2/C(=O)N(CCCC)C(=O)N2Cc2cc(C)on2)n1Cc1ccc(C(=O)OC)cc1`: 8.5 nM.
`CCCCc1ncc(/C=C2/C(=O)N(CCCC)C(=O)N2CCCC)n1Cc1ccc(-c2ccccc2C(=O)OC)cc1` registered a 50% inhibitory concentration (IC50) in experiment [1] of 29.6 nM.
On the same count and under the same terms, next, `CCCCc1ncc(/C=C2/C(=O)N(CCCC)C(=O)N2Cc2cccc(Cl)c2)n1Cc1ccc(C(=O)OC)cc1`: 117 nM; `CCCCc1ncc(/C=C2\C(=O)NC(=O)N2CCCC)n1Cc1ccc(-c2nn[nH]n2)cc1`: 2.5 nM; `CCCCc1ncc(/C=C2/C(=O)N(CCCC)C(=O)N2Cc2sccc2C)n1Cc1ccc(C(=O)OC)cc1`: 23.9 nM.
Same read-out and setting: for `CCCCc1ncc(/C=C2/C(=O)N(CCCC)C(=O)N2Cc2ccc([N+](=O)[O-])cc2)n1Cc1ccc(C(=O)OC)cc1` the value was 16.9 nM; for `CCCCc1ncc(/C=C2/C(=O)N(CCC)C(=O)N2Cc2csc(C)n2)n1Cc1ccc(C(=O)OC)cc1`, 9 nM.
The same measure, in the same setting: next, `CCCCc1ncc(/C=C2\C(=O)N(CCCC)C(=O)N2Cc2cccs2)n1Cc1ccc(C(=O)O)cc1`: 0.6 nM; `CCCCc1ncc(/C=C2/C(=O)N(CCCC)C(=O)N2Cc2ccc(C(=O)OC)s2)n1Cc1ccc(C(=O)OC)cc1`: 4.2 nM; `CCCCc1ncc(/C=C2/C(=O)N(CCCC)C(=O)N2C(c2ccccc2)c2ccccc2)n1Cc1ccc(C(=O)OC)cc1`: 884 nM.
Consider `CCCCc1ncc(/C=C2/C(=O)N(CCCC)C(=O)N2Cc2ccc3ccccc3c2)n1Cc1ccc(C(=O)OC)cc1`, for which the IC50 in experiment [1] amounted to 104 nM.
Same read-out and setting: for `CCCCc1ncc(/C=C2/C(=O)N(CCCC)C(=O)N2Cc2cc(Br)cs2)n1Cc1ccc(C(=O)OC)cc1` the value was 21.9 nM.
On to `CCCCc1ncc(/C=C2\C(=O)NC(=O)N2CCC(C)C)n1Cc1ccc(C(=O)O)cc1`, for which the half-inhibitory concentration (IC50) in experiment [2] amounted to 74 nM; in experiment [1] it was 4.9 nM.
As for `CCCCc1ncc(/C=C2/C(=O)N(CCCC)C(=O)N2Cc2nn[nH]n2)n1Cc1ccc(C(=O)OC)cc1`, the IC50 in experiment [1] was found to be 41.7 nM.
The same measure, in the same setting: next, `CCCCc1ncc(/C=C2/C(=O)N(C)C(=O)N2Cc2csc(C)n2)n1Cc1ccc(C(=O)OC)cc1`: 16.6 nM; `CCCCc1ncc(/C=C2/C(=O)N(CCCC)C(=O)N2CCc2cccs2)n1Cc1ccc(C(=O)OC)cc1`: 14.5 nM; `CCCCc1ncc(/C=C2\C(=O)NC(=O)N2CCCC)n1Cc1ccc(NS(=O)(=O)C(F)(F)F)cc1`: 4.2 nM.
In the case of `CCCCc1ncc(/C=C2/C(=O)NC(=O)N2CCCC)n1Cc1ccc(-c2ccccc2C(=O)OC)cc1`, the 50% inhibitory concentration (IC50) in experiment [1] is 15.9 nM.
In experiment [1], `CCCCc1ncc(/C=C2/C(=O)N(CCCC)C(=O)N2Cc2ccc(C(=O)OC)cc2)n1Cc1ccc(C(=O)OC)cc1` gave an IC50 of 14.3 nM.
Still for that read-out and setting: next, `CCCCc1ncc(/C=C2\C(=O)N(CCCC)C(=O)N2Cc2csc(N)n2)n1Cc1ccc(C(=O)O)cc1`: 0.5 nM.
The same measure, in the same setting: next, `CCCCc1ncc(/C=C2/C(=O)N(CCCC)C(=O)N2Cc2cccc(C)c2)n1Cc1ccc(C(=O)OC)cc1`: 18.5 nM; `CCCCc1ncc(/C=C2/C(=O)N(COC)C(=O)N2Cc2csc(C)n2)n1Cc1ccc(C(=O)OC)cc1`: 47.8 nM; `CCCCc1ncc(/C=C2/C(=O)N(CCCC)C(=O)N2CCCC(F)(F)F)n1Cc1ccc(C(=O)OC)cc1`: 6.4 nM.
In the case of `CCCCc1ncc(/C=C2/C(=O)N(CCCC)C(=O)N2Cc2ccc(C#N)cc2)n1Cc1ccc(C(=O)OC)cc1`, in experiment [1], the IC50 worked out at 11.1 nM.
On the same count and under the same terms, next, `CCCCc1ncc(/C=C2/C(=O)N(CCCC)C(=O)N2CCc2ccccc2)n1Cc1ccc(C(=O)OC)cc1`: 31 nM.

The IC50 is the concentration at which inhibition is half-maximal. A lower IC50 goes with inhibition by little substance.
